This test in a line: Binding constant of the compound.

In the case of `CN(CCCN)CCCN1C(=O)c2ccc3c4c(ccc(c24)C1=O)C(=O)N(CCCN(C)CCCNC(=O)C(Cc1c[nH]cn1)NC(=O)CNC(=O)CN)C3=O` (configuration not stated), the Binding constant worked out at 100000 M⁻¹. Under `CN(CCCNC(=O)C(Cc1c[nH]cn1)NC(=O)CNC(=O)CN)CCCN1C(=O)c2ccc3c4c(ccc(c24)C1=O)C(=O)N(CCCN(C)CCCNC(=O)C(Cc1c[nH]cn1)NC(=O)CNC(=O)CN)C3=O` (configuration not stated) stands 100000 M⁻¹.

For the origin of these results see ChEMBL document CHEMBL1132674, “Design, synthesis and DNA-cleavage of Gly-Gly-His-naphthalene diimide conjugates” (Bioorg Med Chem Lett, 1999).
